From patent US9266902B2, “Labelling reagents having a pyridine nucleus bearing a diazomethyl function, process for synthesis of such reagents and processes for detection of biological molecules” (priority 2008, dated 2016)

How the values were obtained:
[1] = system: RNA amplicon (NASBA), 16S RNA of Mycobacterium tuberculosis; assay: Labelling of RNA amplicon without interim purification, detection by hybridisation on DNA chip; conditions: label 2 mM, 3 mM HCl, no purification
Method: In a 1 mL tube, the following are mixed: • 5 μL of 8 mM label solution (96/4 DMSO/Methanol).
The nucleic acids thus labelled are not purified, but are hybridised directly.
The labelled nucleic acids are transferred without purification into 480 μL of hybridisation buffer. The samples are hybridised on the DNA chips in the same way as for the previous example.

[2] = Stability in a liquid medium at ambient temperature (HPLC purity over time); assay type: physicochemical; conditions: 125 mM in 96/4 DMSO/methanol, ambient temperature (22° C.), at 10 days
[3] = system: RNA amplicon (NASBA), 16S RNA of Mycobacterium tuberculosis; conditions: label 2.5 mM, hybridisation at 45° C. up to 24 hrs
Method: The solution is mixed by vortex then incubated for 10 minutes at 65° C.
The labelled nucleic acids were purified on a QiaQuick (PCR purification kit, Qiagen) column using the purification protocol recommended by the manufacturer. The elution volume is 100 μL.
After purification, the labelled nucleic acids are transferred into 400 of hybridisation buffer. The samples are hybridised on the DNA chips designed for the analysis of the “GenBank” M20940 sequence of the 16S RNA of Mycobacterium tuberculosis. […] The hybridisation stages were performed by injecting. 80 μL of the hybridisation mixture into the chip then maintaining this in a hybridisation oven at 45° C. for 0.5 hour, 2 hours, 6.5 hours or 24 hours.
300 μL of pure water; 300 μL of 100 mM Tris buffer pH 7/1 M NaCl/0.05% Tween 20/0.005% antifoamant; 6 μL of BSA (50 mg/mL); 6 μL of SA-PE (300 μg/mL).
The reading of the fluorescence emitted at the surface of the DNA chip after labelling and hybridisation and the generation of data in terms of signal intensity and percentage homology are performed with the reading systems and software supplied by Affymetrix. The reading system supplies signal and background noise intensities expressed in rfu (“relative fluorescence unit”). The percentage homology is given relative to a reference sequence which in this case is the sequence of Mycobacterium tuberculosis.

[4] = Stability in the dry form at +4° C. after lyophilisation (HPLC purity over time); conditions: 250 mM in 10 mM Tris HCl pH 7.5 and 10% trehalose, lyophilised one night

Substance | percentage homology [1] | purity of the initial compound [2] [%] | background noise compared to BBP [1] | specific signals (specific hybridisation) compared to BBP [1] | stability of labelled amplicons in the course of hybridisation [3] | stability to lyophilisation [4]
[Bio-EG3]2-PDAM [BBP, reference compound] | relatively low | < 10 |  |  |  | 
Pyridine Diazo Biotin [PyDB] | higher |  | reduced background noise | improved | perfectly stable | perfectly stable
